# According to patent publication US7655395B2, “Isolation and use of ryanodine receptors” (E.I. du Pont de Nemours and Company, priority 2002, dated 2010):
# Columns and labels:
# [1] = tested on: control cells without DNA / wild-type Sf9 cells; experiment: Calcium response in control Sf9 cells (without DNA, lipid only, non-transfected, wild type); type: cell-based, Spodoptera frugiperda; conditions: Compound 5 3 μM
# Source text: (§1) Several drops of a suspension of recombinant Spodoptera frugiperda cell line, Sf9, transiently expressing insect ryanodine receptors were placed on a poly-L-lysine-coated coverslip and allowed to attach. Cells were then rinsed in physiological saline having the following composition (mM): NaCl 130; KCl 5.4; MgCl2 1.2; CaCl2 1.0; NaHCO3 4.2; NaH2P04 7.3; Glucose 10; Sucrose 63; MES 20; pH 6.3. Cells were then bathed in physiological saline containing the calcium sensitive fluoroprobe, Fura-2 AM (2 μM), and Pluronic F127 (0.002%) for 30 min. Cells were rinsed in standard physiological saline for at least 15 min prior to testing. Testing was conducted in standard physiological saline, as the cell lines are devoid of functional voltage-gated calcium channels.
# Imaging studies were conducted using a Nikon Diaphot microscope with a 40× oil immersion objective (NA 1.3) Image acquisition and processing was performed using the MetaFluor™ imaging system from Universal Imaging Corporation (West Chester, Pa.) Calcium calibration was carried out using the Grynkiewicz equation with a dissociation constant (Kd) of 145 nM for Fura-2 (Grynkiewicz et al., 1985). Cell-attached coverslips were placed in a sealed chamber with physiological saline continuously perfused across the cells using a peristaltic pump. Test compounds solubilized in physiological saline were applied by switching the perfusate source.
# (§2) For studies involving the stable recombinant Spodoptera frugiperda cell line, Sf9, (other cell lines could also be used such as Sf21, S2, etc) expressing an insect ryanodine receptor from Drosophila melanogaster, or Heliothis virescens (alternatively receptors from other species such as Myzus persicae, Peregrinus maidis, Aphis gossypii, etc) were grown in T75 (or other appropriate sized) flasks in supplemented Grace's insect medium. Cells were maintained in an incubator at 22° C. until testing. Cells were suspension-loaded with the calcium sensitive fluoroprobe, Fura-2 AM (1-2 μM) and Pluronic F127 (0.002%) in culture medium for 30 minutes under agitation. Cells were then centrifuged and the pellet resuspended in physiological saline having the following composition (mM): NaCl 130; KCl 5.4; MgCl2 1.2; CaCl2 1.0; NaHCO3 4.2; NaH2P04 7.3; Glucose 10; Sucrose 63; MES 20; pH 6.3 at approximately 150,000-200,000 cells per well (96-well plate). After a 30 minute equilibration period the cell plate was tested using a Molecular Devices' FlexStation™ system with dual wavelength excitation (340 and 380 nm) and fluorescence emission measured at 510 nm. Test and control samples were added using integrated fluidics and the intracellular calcium monitored over a 2 minute period.
# [2] = target: T1, recombinant Drosophila melanogaster ryanodine receptors (expressed in Sf9 cells) (Drosophila melanogaster, UniProt Q24498); type: cell-based; conditions: receptor expressed in Sf9 cells
# T1 construct: expressed in transfected cells
# Experimental: The Spodoptera frugiperda cell line Sf9 used for transfection studies, was maintained in Sf-900 II SFM medium (Invitrogen Life Technologies™, Carlsbad, Calif.) in T-75 flasks incubated at 27° C. It is understood that those skilled in the art might choose alternative cell types such as the Spodoptera frugiperda cell line Sf21 or the Drosophila cell line S2. For the purpose of general handling and propagation, cells were suspended through scraping or agitation and a volume of cell suspension was added to each well of a poly-L-lysine coated 96-well, glass-bottom plate so as to provide 70-80% confluence. Cells were maintained in an incubator at 27° C. until testing.
# SF900-II media was used to bring the final volume in the dish to 2 ml and the cells were incubated at 27 degrees C. for 21 h. Following the incubation the media was aspirated from the dish and replaced with 1 ml of SF900-II media pre-warmed to 27 degrees C.
# The transient transfection was carried out following an InsectSelect BSD System manual (Invitrogen Life Technologies™, Carlsbad, Calif.). […] The transfection was accomplished by adding the transfection solution drop-wise to the dish and incubating 4 h at room temperature with gentle rocking. […]
# as §1
# Cell-attached coverslips were placed in a sealed chamber with physiological saline continuously perfused across the cells using a peristaltic pump. Test compounds solubilized in physiological saline were applied by switching the perfusate source.
# as §2
# [3] = target: native cockroach ryanodine receptors (roach femoral muscle membranes) (Periplaneta americana, UniProt A0ABQ8T696); experiment: Radioligand displacement ([3H]-GN analog Cpd 1) on roach femoral muscle membranes; type: binding; conditions: displacement of [3H]-Cpd 1, roach muscle membranes, 60 min at 32° C.; read-out: Displacement IC50 (nM) P. americana
# Experimental: Binding to Roach Femoral Muscle Membranes:
# Assays were carried out in triplicate.
# [4] = tested on: recombinant Heliothis virescens ryanodine receptor (expressed in Sf9 cells); experiment: Calcium release assay, Sf9 cells transiently or stably expressing Heliothis virescens ryanodine receptor (Fura-2); type: cell-based; conditions: Cpd 5 3 μM; Sf9 transiently expressing H. virescens ryanodine receptor, 72 hr post-transfection; FIG. 4
# Experimental: SF9 cells were grown at 27 degrees C. in a Corning 125 ml polycarbonate Erlenmeyer flask to a density of 3.1 million cells per ml in SF900-II serum free media (Gibco catalog no. 10902-088, Invitrogen™, Carlsbad, Calif.). One million cells were transferred to one well of a Corning 6-well, flat bottom cell culture dish (Corning Inc., Acton, Mass., catalog no. 3516). SF900-II media was used to bring the final volume in the dish to 2 ml and the cells were incubated at 27 degrees C. for 21 h. Following the incubation the media was aspirated from the dish and replaced with 1 ml of SF900-II media pre-warmed to 27 degrees C.
# In the case of the vectors containing the Cre recognition elements, the transfection solution was mixed in a 1.5 ml microfuge tube by combining 5 ug of pHE7 plasmid, 5 ug of pMLS104 Cre plasmid and 0.5 ug of lacZ reporter plasmid, 15 ug of cellfectin reagent (Invitrogen cat. #10362-010) and SF900-II serum free media (Gibco catalog #10902-088, Invitrogen™, Carlsbad, Calif.) in a total volume of 500 ul. The solution was incubated for 1 hour at room temperature just prior to the transfection.
# The transfection was accomplished by adding the transfection solution drop-wise to the dish and incubating 4 h at room temperature with gentle rocking. After the 4 h incubation the media was replaced with 2 ml of SF900-II media pre-warmed to 27 degrees C. and the cells were incubated 3 days at 27 degrees C.
# as §1, with “Testing was conducted in standard physiological saline, as the cell lines are devoid of functional voltage-gated calcium channels.” left out
# For studies involving the stable recombinant Spodoptera frugiperda cell line, Sf9, (other cell lines could also be used such as Sf21, S2, etc) expressing an insect ryanodine receptor from Drosophila melanogaster, or Heliothis virescens (alternatively receptors from other species such as Myzus persicae, Peregrinus maidis, Aphis gossypii, etc) were grown in T75 (or other appropriate sized) flasks in supplemented Grace's insect medium. […] After a 30 minute equilibration period the cell plate was tested using a Molecular Devices' FlexStation™ system with dual wavelength excitation (340 and 380 nm) and fluorescence emission measured at 510 nm. […]
smiles,measurement,setting,value
"Cc1cccc(C(=O)NC(C)C)c1NC(=O)c1cc(C(F)(F)F)nn1-c1ncccc1Cl [Cpd 5, 1-(3-Chloro-2-pyridinyl)-N-[2-methyl-6-[[(1-methylethyl)amino]carbonyl]phenyl]-3-(trifluoromethyl)-1H-pyrazole-5-carboxamide]",calcium response in control cells without DNA,[1],No significant calcium responses
same,Calcium Release Threshold (nM) D. melanogaster,[2],<300 nM
same,IC50,[3],< 300 nM
same,cytosolic [Ca2+] response,[4],increase in cytosolic [Ca^2+]
